Experiments:
[1] = test system: TNFα; assay: PBMC cytokine profiling assay, TNFα induction; format: cell-based; conditions: human PBMCs, 24 hours incubation
In short: (§1)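 Cryopreserved healthy-donor human PBMCs (100k cells/well) were exposed for 24 h at 37 °C to a 10-point half-log compound series in 0.5% final DMSO. Secreted cytokines in the conditioned medium were quantified by MSD electrochemiluminescence, with TNFα samples diluted 1:9. AC50 was fitted by non-linear regression on percent activation normalised to plate controls.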

[2] = test system: IL12p40; assay: PBMC cytokine profiling assay, IL12-p40 induction; format: cell-based; conditions: human PBMCs, 24 hours incubation
In short: as §1

[3] = test system: IFNα; assay: PBMC cytokine profiling assay, IFNα induction; format: cell-based; conditions: human PBMCs, 24 hours incubation
In short: as §1

[4] = Cytotoxicity assay, Huh-7 cells, Cell Titer Glo, 5 days; format: cell-based, human; conditions: human, Huh-7 cells; Huh-7, five days incubation, intracellular ATP; read-out: CC50 HUH7 CTG 5D
Excerpt: (§2) To assess potential off-target toxicity of certain compounds disclosed herein, the in vitro cytotoxicity of those compounds was profiled using a panel of 5 cell lines with various tissue origins. Compound cytotoxicity was examined in hepatoma-derived Huh-7 and HepG2 cells, prostate carcinoma-derived PC-3 cells, lymphoma derived MT-4 cells and a normal diploid lung cell line MRC-5. HepG2 and PC-3 cells used were adapted to grow in glucose-free galactose-containing medium. These cells have a relatively higher sensitivity to inhibitors of mitochondrial oxidative phosphorylation compared to the same cells maintained in standard glucose-containing culture medium (Marroquin et al., Toxicol. Sci. 2007; 97 (2):539-47). Cell viability was determined by measuring intracellular ATP levels following five days of continuous incubation with test compounds.
(§3) The human hepatoma Huh-7 cell line was obtained from ReBLikon GmbH (Mainz, Germany) {20879}. The MT-4 cell line (HTLV-1 transformed, human T lymphoblastoid cells) was obtained from the NIH AIDS Reagent program (Bathesda, MD). The human hepatoblastoma cell line HepG2, human prostate carcinoma cell line PC-3, and normal fetal lung derived MRC-5 cells were obtained from the American Type Culture Collection (ATCC, Manassas, VA).
(§4) Huh-7 cells were maintained in Dulbecco's Modified Eagle Medium (DMEM) supplemented with 10% fetal bovine serum (FBS, Hyclone, Logan, UT), 1% non-essential amino acids (Gibco, Carlsbad, CA). PC-3 and HepG2 cells were adapted to grow in 0.2% galactose-containing, glucose-free Dulbecco's Modified Eagle Medium (DMEM) supplemented with 10% fetal bovine serum (FBS, Hyclone, Logan, UT), 1% non-essential amino acids (Gibco, Carlsbad, CA), 1% Pyruvate (Cellgro), 1% Glutamax (Invitrogen, Carlsbad, CA). Galactose-adapted cells were maintained in the same culture medium. MRC-5 cells were maintained in Eagle's Minimum Essential Medium (EMEM) supplemented with 10% fetal bovine serum (FBS, Hyclone, Logan, UT). MT-4 cells were maintained in RPMI-1640 supplemented with 10% fetal bovine serum (FBS, Hyclone, Logan, UT). All cell culture media were also supplemented with 100 Units/mL penicillin, 100 μg/mL streptomycin (Gibco).
(§5) Using a Biotek uFlow Workstation (Biotek, Winooski, VT), 1500 HepG2, 1500 PC-3, 500 Huh7 or 1500 MRC-5 cells in 90 μL of culture media were dispensed into each well of black polystyrene tissue culture-treated 384-well plates. Plated cells were incubated for 24 hours in an incubator at 37° C., 5% CO2 and 90% humidity. Compound serial dilutions were performed in 100% DMSO in 384-well polypropylene (high recovery) plates on a Biomek FX Workstation (Beckman Coulter, Fullerton, CA). After 3-fold serial dilutions, 0.4 μL of compounds were transferred into 384-well plates containing cells using a Velocity 11 system equipped with a Bravo 384-well pipettor. The DMSO concentration in the final assay plates was 0.44% (v/v). Cells were incubated with compound(s) for five days at 37° C. Puromycin (44 μM final concentration) and DMSO (0.44%, v/v) were used as a positive and negative controls, respectively
(§6) At the end of the incubation period the cytotoxicity assay was performed as follows: Media from 384-well cell culture plates were aspirated with a Biotek EL405 plate-washer (Biotek) and cells were washed with 100 μL PBS once. Twenty microliters of Cell Titer Glo (Promega, Madison, WI) was added to each well of the plates with a Biotek uFlow liquid dispenser. Plates were incubated for 15 minutes at room temperature before luminescence was measured with a Perkin Elmer Envision Plate Reader (Perkin Elmer, Waltham, MA).
(§7) CC50 values were defined as the compound concentration that caused a 50% decrease in luminescence signal, and were calculated by non-linear regression using Pipeline Pilot software by applying a four parameter fit equation (Accelrys, San Diego, CA). Individual CC50 values are listed as μM concentrations.

[5] = test system: Huh-7 cells; assay: as above; format: cell-based, human; conditions: Huh-7, five days incubation, intracellular ATP; read-out: CC50 HUH7 CTG 5D
Excerpt: as §2, §3, §4, §5, §6, §7

[6] = test system: MRC-5 cells; assay: Cytotoxicity assay, MRC-5 cells, Cell Titer Glo, 5 days; format: cell-based, human; conditions: MRC-5, five days incubation, intracellular ATP; read-out: CC50 MRC5 CTG 5D
Excerpt: as §2, §3, §4, §5, §6, §7

[7] = MT-4 cytotoxicity assay, Cell Titer Glo, 5 days; format: cell-based, human; conditions: human, MT-4 cells; MT-4, five days incubation, intracellular ATP; read-out: CC50 (MT4)
Excerpt: as §2, §3, §4
For the MT-4 cytotoxicity assay, 0.4 μL of serially diluted compounds were added to 40 μl of cell maintenance media in 384-well black, solid bottom plate using a Biomek FX workstation (Beckman Coulter). Two thousand cells in 35 μL were added to each well using a Biotek uFlow Workstation (Biotek). Each assay plate contained 10 μM Puromycin (final concentration) and 0.5% DMSO in RPMI-1640 as positive and negative controls, respectively. Assay plates were incubated for five days at 37° C. in an incubator set at 5% CO2 and 90% humidity. After five days, 22 μL of Cell Titer Glo reagent (Promega) was added to the assay plates with a Biotek uFlow Workstation. Plates were subsequently placed on a Perkin Elmer Envision Plate Reader for five minutes before the luminescence signal was read.
as §7

[8] = Cytotoxicity assay, galactose-adapted HepG2 cells, Cell Titer Glo, 5 days; format: cell-based; conditions: human, galactose-adapted HepG2, five days incubation, intracellular ATP, read-out: CC50 GALHEPG2 CTG 5D
Excerpt: as §2, §3, §4, §5, §6, §7

[9] = Cytotoxicity assay, galactose-adapted PC-3 cells, Cell Titer Glo, 5 days; format: cell-based; conditions: human, galactose-adapted PC-3, five days incubation, intracellular ATP, read-out: CC50 GALPC3 CTG 5D
Excerpt: as §2, §3
as §4, with “(Gibco). […]” for “(Gibco).”
as §6, with “Twenty microliters of Cell Titer Glo (Promega, Madison, WI) was added to each well of the plates with a Biotek uFlow liquid dispenser.” left out, “MA). […]” for “MA).”

[10] = Cytotoxicity assay, MRC-5 cells, Cell Titer Glo, 5 days; format: cell-based, human; conditions: human, MRC-5 cells; MRC-5, five days incubation, intracellular ATP; read-out: CC50 MRC5 CTG 5D
Excerpt: as §2, §3, §4, §5, §6, §7

SMILES	AC50 ([1]; Homo sapiens, PBMC, 24 h) [µM]	AC50 ([2]; Homo sapiens, PBMC, 24 h) [µM]	AC50 ([3]; Homo sapiens, PBMC, 24 h) [µM]	CC50 [5] [µM]	CC50 [6] [µM]	also measured
CCCC[C@H](CO)Nc1nc(N)nc2cccnc12 [Example 15, (R)-2-((2-aminopyrido[3,2-d]pyrimidin-4-yl)amino)hexan-1-ol]	1.6	1.2	> 200	–	–	CC50 at 5 days [4]: 10.7 µM
CCCC[C@@](C)(Nc1nc(N)nc2cccnc12)C(C)O (single isomer, unassigned) [Example 97]	–	–	–	44.4	44.4	AC50 [1]: 0.14 µM; AC50 [2]: 0.13 µM; AC50 [3]: 26 µM; CC50 at 5 days [7]: 50 µM
CCCC[C@](C)(CNC(C)=O)Nc1nc(N)nc2cc(Cl)cnc12 [Example 65, (R)—N-(2-((2-amino-7-chloropyrido[3,2-d]pyrimidin-4-yl)amino)-2-methylhexyl)acetamide]	0.11	0.09	> 50	44.4	44.4	CC50 at 5 days [8]: 44.4 µM; CC50 at 5 days [7]: 50 µM
CCC[C@@H](CO)Nc1nc(N)nc2cc(F)c(F)cc12 [X, reference compound]	1.2	0.97	7.1	–	–	CC50 at 5 days [8]: 7.85 µM; CC50 at 5 days [9]: 6.79 µM; CC50 at 5 days [4]: 16.9 µM; CC50 at 5 days [10]: 20.9 µM; CC50 at 5 days [7]: 53.8 µM
CCCC[C@@](C)(CO)Nc1nc(N)nc2cc(F)cnc12 [Example 64, (S)-2-((2-amino-7-fluoropyrido[3,2-d]pyrimidin-4-yl)amino)-2-methylhexan-1-ol]	3.1	3.2	37.9	–	–	CC50 at 5 days [9]: 1.55 µM; CC50 at 5 days [7]: 0.79 µM
CCCC[C@](C)(CNC(C)=O)Nc1nc(N)nc2cccnc12 [Example 61]	0.02	0.02	42.1	44.4	44.4	CC50 at 5 days [8]: 44.4 µM
CCCC[C@](C)(CNC(C)=O)Nc1nc(N)nc2cc(F)cnc12 [Example 101, (R)—N-(2-((2-amino-7-fluoropyrido[3,2-d]pyrimidin-4-yl)amino)-2-methylhexyl)acetamide]	0.1	0.11	> 50	44.4	44.4	CC50 at 5 days [8]: 44.4 µM; CC50 at 5 days [7]: 50 µM
CCCC[C@](CO)(Nc1nc(N)nc2cccnc12)C(F)(F)F [Example 93, (R)-2-((2-aminopyrido[3,2-d]pyrimidin-4-yl)amino)-2-(trifluoromethyl)hexan-1-ol]	0.44	0.4	> 50	44.4	–	CC50 at 5 days [10]: 38.8 µM
CCCC[C@@H](Nc1nc(N)nc2cc(F)cnc12)C(O)CF (stereo partly drawn) [Example 102, (3R)-3-((2-amino-7-fluoropyrido[3,2-d]pyrimidin-4-yl)amino)-1-fluoroheptan-2-ol]	0.81	0.76	> 50	44.4	44.4	–
CCCC[C@H](CNC(C)=O)Nc1nc(N)nc2cccnc12 [Example 51, (R)—N-(2-((2-aminopyrido[3,2-d]pyrimidin-4-yl)amino)hexyl)acetamide]	0.37	0.33	> 200	44.4	44.4	CC50 at 5 days [8]: 44.4 µM
CCCC[C@@](C)(Nc1nc(N)nc2cc(F)cnc12)C(C)O (single isomer, unassigned) [Example 95]	–	–	–	–	44.4	AC50 [1]: 0.15 µM; AC50 [2]: 0.15 µM; AC50 [3]: > 50 µM
C=CCC[C@](C)(CO)Nc1nc(N)nc2cc(F)cnc12 [Example 84, (R)-2-((2-amino-7-fluoropyrido[3,2-d]pyrimidin-4-yl)amino)-2-methylhex-5-en-1-ol]	3	3.9	> 50	–	–	–
CCCC[C@](C)(CNC(C)=O)Nc1nc(N)nc2cc(C)cnc12 [Example 66, (R)—N-(2-((2-amino-7-methylpyrido[3,2-d]pyrimidin-4-yl)amino)-2-methylhexyl)acetamide]	0.04	0.03	1.6	–	–	–
CCCC[C@@H](Nc1nc(N)nc2cccnc12)C(O)C(F)F (single isomer, unassigned) [Example 90]	0.86	0.62	7.8	–	–	–
CCC[C@@H](CO)Nc1nc(N)nc2cc(C#N)cnc12 [Example 22, (S)-2-amino-4-((1-hydroxypentan-2-yl)amino)pyrido[3,2-d]pyrimidine-7-carbonitrile]	> 50	> 50	35.9	–	–	–
Nc1nc(NCCCO)c2ncccc2n1 [Example 13, 3-((2-aminopyrido[3,2-d]pyrimidin-4-yl)amino)propan-1-ol]	> 50	> 50	> 50	–	–	–
CCC[C@H](Nc1nc(N)nc2cccnc12)C(F)(F)F [Example 28, (S)—N^4-(1,1,1-trifluoropentan-2-yl)pyrido[3,2-d]pyrimidine-2,4-diamine]	28.6	28.2	45	–	–	–
CCCC[C@H](CO)Nc1nc(N)nc2cc(CC)cnc12 [Example 71, (R)-2-((2-amino-7-ethylpyrido[3,2-d]pyrimidin-4-yl)amino)hexan-1-ol]	2.6	2.7	> 50	–	–	–
CCCC[C@H](CO)Nc1nc(N)nc2cc(Cl)cnc12 [Example 23C, (R)-2-((2-amino-7-chloropyrido[3,2-d]pyrimidin-4-yl)amino)hexan-1-ol]	24.7	25.7	> 50	–	–	–
CCCC[C@@H](CO)Nc1nc(N)nc2cc(F)cnc12 [Example 45, (S)-2-((2-amino-7-fluoropyrido[3,2-d]pyrimidin-4-yl)amino)hexan-1-ol]	1.6	1.3	8.3	–	–	–
